Data from patent publication US5976497A, “Dopamine D4 receptor ligands” (Resolution Pharmaceuticals, Inc., priority 1997, dated 1999).
One block for each molecule: values may come before it.

Key:
D4 = biological target: T1, D4 (Homo sapiens, UniProt P21917, DEL265-296); assay: D4 receptor-binding affinity (reduction of ^3 H-spiperone binding); settings: for Ki: ^3 H-spiperone displacement, Ki by Cheng and Prusoff transformation of IC50
T1 construct: expressed in transfected cells; host or cells: HEK 298 cells (so in the source); membrane preparations
T1 sequence (P21917 with tags, fused parts or gaps DEL265-296): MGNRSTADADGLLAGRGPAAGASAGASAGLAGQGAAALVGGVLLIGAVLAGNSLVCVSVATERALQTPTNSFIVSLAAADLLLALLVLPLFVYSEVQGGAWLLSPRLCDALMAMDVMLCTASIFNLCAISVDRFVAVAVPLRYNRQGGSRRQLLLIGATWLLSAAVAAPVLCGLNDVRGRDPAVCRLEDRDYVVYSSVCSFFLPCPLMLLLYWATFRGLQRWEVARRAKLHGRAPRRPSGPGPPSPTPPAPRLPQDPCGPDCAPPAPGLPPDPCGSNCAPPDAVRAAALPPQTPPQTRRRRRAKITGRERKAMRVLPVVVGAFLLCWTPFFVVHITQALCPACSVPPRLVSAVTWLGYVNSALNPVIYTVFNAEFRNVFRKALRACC
Procedure: (§1) The potency of the test compound to reduce ^3 H-spiperone binding is directly correlated to its binding affinity for the receptor.
(§2) The test compounds were assayed at a range of concentrations and the % inhibition of ^3 H-spiperone binding at each test concentration was measured. Specific binding in the absence of test compound is the difference of total binding minus non-specific binding and similarly specific binding (in the presence of test compound) is the difference of displacement binding minus non-specific binding.
(§3) where [L] is the concentration of ^3 H-spiperone used in the assay and KD is the dissociation constant of ^3 H-spiperone determined independently under the same binding conditions.

D2 = biological target: T2, D2 (Homo sapiens, UniProt P14416); assay: D2 receptor-binding affinity (reduction of ^3 H-spiperone binding); settings: for Ki: ^3 H-spiperone displacement, Ki by Cheng and Prusoff transformation of IC50
T2 construct: expressed in transfected cells; host or cells: GH4C1 (rat pituitary) cells, stably transfected; membrane preparations
Procedure: as §1, §2, §3

D4 receptor = settings: marketed products, background statement; cited from earlier work
[1] = tested on: D4 receptor relative to the D2 receptor; settings: marketed products, background statement; cited from earlier work

T2 sequence (P14416 1-414 isoform P14416-2): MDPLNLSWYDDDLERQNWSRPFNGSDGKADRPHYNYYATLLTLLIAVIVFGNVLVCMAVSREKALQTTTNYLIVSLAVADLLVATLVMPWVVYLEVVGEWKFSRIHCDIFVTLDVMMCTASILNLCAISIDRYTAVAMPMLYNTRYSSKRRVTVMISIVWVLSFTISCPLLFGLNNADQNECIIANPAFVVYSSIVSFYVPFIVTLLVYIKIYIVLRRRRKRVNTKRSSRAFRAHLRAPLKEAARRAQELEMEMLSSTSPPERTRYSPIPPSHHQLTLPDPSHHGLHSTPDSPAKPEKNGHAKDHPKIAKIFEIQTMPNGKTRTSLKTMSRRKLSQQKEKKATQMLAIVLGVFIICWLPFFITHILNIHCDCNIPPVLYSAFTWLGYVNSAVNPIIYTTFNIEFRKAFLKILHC

Molecule: 3-[4-(5-iodopyridin-2-yl)-piperazin-1-yl]methyl-1H-pyrrolo[2,3-b]pyridine [Example 2]
Ki (D4): 0.91 nM
Ki (D2): 621 nM

Molecule: 3-[4-(pyridin-2-yl)-piperazin-1-yl]methyl-1H-pyrrolo[2,3-b]pyridine [Example 1]
Ki (D4): 1 nM
Ki (D2): 3660 nM

inhibition at 0.001 µM (D4; 1 nM, ^3 H-spiperone): 26%
inhibition at 0.01 µM (D4; 10 nM, ^3 H-spiperone): 78%
inhibition at 0.1 µM (D4; 100 nM, ^3 H-spiperone): 98%
inhibition at 0.001 µM (D2; 1 nM, ^3 H-spiperone): < 10%
inhibition at 0.01 µM (D2; 10 nM, ^3 H-spiperone): < 10%
inhibition at 0.1 µM (D2; 100 nM, ^3 H-spiperone): < 10%
Molecule: Brc1ccc(N2CCN(Cc3c[nH]c4ncccc34)CC2)nc1 [Example 3, 3-[4-(5-bromopyridin-2-yl)-piperazin-1-yl]methyl-1H-pyrrolo[2,3-b]pyridine]

Molecule: CN1CCN(C2=Nc3cc(Cl)ccc3Oc3ccccc32)CC1 [isoloxapine]
Ki (D4 receptor): ~20 nM
preference for binding to the D4 receptor relative to the D2 receptor [1]: about 10 fold
